Patent US10131652B2, “Pyrimidinyloxy benzene derivatives as herbicides” (E. I. DU PONT DE NEMOURS AND COMPANY, priority 2014, dated 2018)
Like-named read-outs stand apart in the source and are kept apart here.

Tests used:
Test in all cases: Test D pre-/postemergence plant response
Type in all cases: in vivo
[1] = test system: Italian ryegrass (Lolium multiflorum); conditions: Lolium multiflorum; for pest or weed control at 62 g/ha: 62 g ai/ha; for pest or weed control at 125 g/ha: 125 g ai/ha
Summary of the method: (§1)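 Pre-/post-emergence greenhouse test. Pre: seeded loam+sand, sprayed same day. Post: 1–4 leaf plants (2–18 cm), peat/vermiculite mix. Formulation: non-phytotoxic solvent + surfactant. Scored visually d13–15, 0–100 vs control.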

[2] = test system: morningglory (Ipomoea coccinea); conditions: Ipomoea; for pest or weed control at 31 g/ha: 31 g ai/ha; for pest or weed control at 62 g/ha: 62 g ai/ha
Summary of the method: as §1

soybean (Glycine max) = conditions: Glycine max; for plant injury at 31 g/ha: 31 g ai/ha; for plant injury at 62 g/ha: 62 g ai/ha
Summary of the method: as §1

[3] = test system: yellow nutsedge (Cyperus esculentus); conditions: Cyperus; for pest or weed control at 31 g/ha: 31 g ai/ha; for pest or weed control at 62 g/ha: 62 g ai/ha; for pest or weed control at 125 g/ha: 125 g ai/ha
Summary of the method: as §1

[4] = test system: waterhemp (common waterhemp, Amaranthus rudis); conditions: Amaranthus tuberculatus; for pest or weed control at 31 g/ha: 31 g ai/ha; for pest or weed control at 62 g/ha: 62 g ai/ha; for pest or weed control at 125 g/ha: 125 g ai/ha
Summary of the method: as §1

[5] = test system: lambsquarters (Chenopodium album); conditions: Chenopodium album; for pest or weed control at 31 g/ha: 31 g ai/ha; for pest or weed control at 62 g/ha: 62 g ai/ha; for pest or weed control at 125 g/ha: 125 g ai/ha
Summary of the method: as §1

corn (Zea mays) = conditions: Zea mays; for Corn plant response rating (crop injury, 0 = no effect, 100 = complete kill) at 62 g/ha: 62 g ai/ha
Summary of the method: as §1

[6] = post-emergence, Postemergence, scale 0 to 100, 0 no effect, 100 complete control, read-out: Plant response rating, Ryegrass, Italian
[7] = pre-emergence, Preemergence, scale 0 to 100 (0 no effect, 100 complete control), read-out: Plant response rating, Morningglory
[8] = pre-emergence, Preemergence, scale 0 to 100 (0 no effect, 100 complete control), read-out: Plant response rating, Soybean
[9] = post-emergence, Postemergence, scale 0 to 100, 0 no effect, 100 complete control, read-out: Plant response rating, Nutsedge, Yellow
[10] = pre-emergence, Preemergence, scale 0 to 100 (0 no effect, 100 complete control), read-out: Plant response rating, Nutsedge, Yellow
[11] = post-emergence, Postemergence, scale 0 to 100, 0 no effect, 100 complete control, read-out: Plant response rating, Waterhemp
[12] = pre-emergence, Preemergence, scale 0 to 100 (0 no effect, 100 complete control), read-out: Plant response rating, Waterhemp
[13] = post-emergence, Postemergence, scale 0 to 100, 0 no effect, 100 complete control, read-out: Plant response rating, Lambsquarters
[14] = pre-emergence, Preemergence, scale 0 to 100 (0 no effect, 100 complete control), read-out: Plant response rating, Lambsquarters

Q: How did the pest or weed control at 62 g/ha [1, 6] turn out when `Fc1cccc(Oc2ncc(Cl)cn2)c1-c1cc(C(F)F)no1` [Compound 144, 5-chloro-2-[2-[3-(difluoromethyl)-5-isoxazolyl]-3-fluorophenoxy]pyrimidine] was run?
A: 10%

Q: And the pest or weed control at 125 g/ha [1, 6]?
A: 10%

Q: What about the pest or weed control at 125 g/ha ([1]; pre-emergence, Preemergence, read-out: Plant response rating (scale 0 to 100), Ryegrass, Italian) of the same compound?
A: 98%

Q: And the pest or weed control at 16 g/ha ([1]; pre-emergence, Preemergence, 16 g ai/ha, scale 0 to 100 (0 no effect, 100 complete control), read-out: Plant response rating, Ryegrass, Italian)?
A: 5%

Q: What about the pest or weed control at 31 g/ha ([1]; pre-emergence, Preemergence, 31 g ai/ha, scale 0 to 100 (0 no effect, 100 complete control), read-out: Plant response rating, Ryegrass, Italian) of the same compound?
A: 60%

Q: And the pest or weed control at 62 g/ha ([1]; pre-emergence, Preemergence, scale 0 to 100 (0 no effect, 100 complete control), read-out: Plant response rating, Ryegrass, Italian)?
A: 80%

Q: What about the pest or weed control at 31 g/ha ([2]; post-emergence, Postemergence, scale 0 to 100 (0 no effect, 100 complete control), read-out: Morningglory plant response rating) of the same compound?
A: 85%

Q: What about the pest or weed control at 62 g/ha ([2]; post-emergence, Postemergence, scale 0 to 100, 0 no effect, 100 complete control, read-out: Plant response rating, Morningglory) of the same compound?
A: 85%

Q: And the pest or weed control at 125 g/ha ([2]; pre-emergence, Preemergence, 125 g ai/ha, read-out: Plant response rating (scale 0 to 100), Morningglory)?
A: 100%

Q: And the pest or weed control at 16 g/ha ([2]; pre-emergence, Preemergence, 16 g ai/ha, scale 0 to 100 (0 no effect, 100 complete control), read-out: Plant response rating, Morningglory)?
A: 20%

Q: What about the pest or weed control at 31 g/ha [2, 7] of the same compound?
A: 75%

Q: And the pest or weed control at 62 g/ha [2, 7]?
A: 100%

Q: And the plant injury at 31 g/ha (soybean (Glycine max); post-emergence, Postemergence, scale 0 to 100 (0 no effect, 100 complete control), read-out: Soybean plant response rating)?
A: 80%

Q: And the plant injury at 62 g/ha (soybean (Glycine max); post-emergence, Postemergence, scale 0 to 100, 0 no effect, 100 complete control, read-out: Plant response rating, Soybean)?
A: 95%

Q: And the plant injury at 125 g/ha (soybean (Glycine max); pre-emergence, Preemergence, 125 g ai/ha, read-out: Plant response rating (scale 0 to 100), Soybean)?
A: 95%

Q: What about the plant injury at 16 g/ha (soybean (Glycine max); pre-emergence, Preemergence, 16 g ai/ha, scale 0 to 100 (0 no effect, 100 complete control), read-out: Plant response rating, Soybean) of the same compound?
A: 35%

Q: What about the plant injury at 31 g/ha (soybean (Glycine max); [8]) of the same compound?
A: 75%

Q: And the plant injury at 62 g/ha (soybean (Glycine max); [8])?
A: 90%

Q: And the pest or weed control at 31 g/ha ([3]; post-emergence, Postemergence, scale 0 to 100 (0 no effect, 100 complete control), read-out: Nutsedge, Yellow plant response rating)?
A: 5%

Q: What about the pest or weed control at 62 g/ha [3, 9] of the same compound?
A: 5%

Q: And the pest or weed control at 125 g/ha [3, 9]?
A: 5%

Q: And the pest or weed control at 125 g/ha ([3]; pre-emergence, Preemergence, read-out: Plant response rating (scale 0 to 100), Nutsedge, Yellow)?
A: 85%

Q: What about the pest or weed control at 16 g/ha ([3]; pre-emergence, Preemergence, 16 g ai/ha, scale 0 to 100 (0 no effect, 100 complete control), read-out: Plant response rating, Nutsedge, Yellow) of the same compound?
A: 15%

Q: What about the pest or weed control at 31 g/ha [3, 10] of the same compound?
A: 30%

Q: And the pest or weed control at 62 g/ha [3, 10]?
A: 50%

Q: What about the pest or weed control at 31 g/ha ([4]; post-emergence, Postemergence, scale 0 to 100 (0 no effect, 100 complete control), read-out: Waterhemp plant response rating) of the same compound?
A: 85%

Q: What about the pest or weed control at 62 g/ha [4, 11] of the same compound?
A: 100%

Q: And the pest or weed control at 125 g/ha [4, 11]?
A: 100%

Q: What about the pest or weed control at 125 g/ha ([4]; pre-emergence, Preemergence, read-out: Plant response rating (scale 0 to 100), Waterhemp) of the same compound?
A: 100%

Q: What about the pest or weed control at 16 g/ha ([4]; pre-emergence, Preemergence, 16 g ai/ha, scale 0 to 100 (0 no effect, 100 complete control), read-out: Plant response rating, Waterhemp) of the same compound?
A: 100%

Q: And the pest or weed control at 31 g/ha [4, 12]?
A: 100%

Q: And the pest or weed control at 62 g/ha [4, 12]?
A: 100%

Q: What about the pest or weed control at 31 g/ha ([5]; post-emergence, Postemergence, scale 0 to 100 (0 no effect, 100 complete control), read-out: Lambsquarters plant response rating) of the same compound?
A: 80%

Q: And the pest or weed control at 62 g/ha [5, 13]?
A: 90%

Q: What about the pest or weed control at 125 g/ha [5, 13] of the same compound?
A: 95%

Q: And the pest or weed control at 125 g/ha ([5]; pre-emergence, Preemergence, read-out: Plant response rating (scale 0 to 100), Lambsquarters)?
A: 100%

Q: What about the pest or weed control at 16 g/ha ([5]; pre-emergence, Preemergence, 16 g ai/ha, scale 0 to 100 (0 no effect, 100 complete control), read-out: Plant response rating, Lambsquarters) of the same compound?
A: 100%

Q: And the pest or weed control at 31 g/ha [5, 14]?
A: 100%

Q: And the pest or weed control at 62 g/ha [5, 14]?
A: 100%

Q: And the plant injury at 16 g/ha (corn (Zea mays); post-emergence, Postemergence, 16 g ai/ha, scale 0 to 100 (0 no effect, 100 complete control), read-out: Corn plant response rating)?
A: 5%

Q: What about the plant injury at 31 g/ha (corn (Zea mays); post-emergence, Postemergence, 31 g ai/ha, scale 0 to 100 (0 no effect, 100 complete control), read-out: Corn plant response rating) of the same compound?
A: 5%

Q: What about the Corn plant response rating (crop injury, 0 = no effect, 100 = complete kill) at 62 g/ha (corn (Zea mays); post-emergence, Postemergence, scale 0 to 100, 0 no effect, 100 complete control) of the same compound?
A: 10%

Q: And the Corn plant response rating (crop injury, 0 = no effect, 100 = complete kill) at 125 g/ha (corn (Zea mays); post-emergence, Postemergence, 125 g ai/ha, scale 0 to 100, 0 no effect, 100 complete control)?
A: 5%

Q: And the plant injury at 125 g/ha (corn (Zea mays); pre-emergence, Preemergence, 125 g ai/ha, read-out: Plant response rating (scale 0 to 100), Corn)?
A: 65%

Q: What about the Corn plant response rating (crop injury, 0 = no effect, 100 = complete kill) at 16 g/ha (corn (Zea mays); pre-emergence, Preemergence, 16 g ai/ha, scale 0 to 100 (0 no effect, 100 complete control)) of the same compound?
A: 0%

Q: What about the Corn plant response rating (crop injury, 0 = no effect, 100 = complete kill) at 31 g/ha (corn (Zea mays); pre-emergence, Preemergence, 31 g ai/ha, scale 0 to 100 (0 no effect, 100 complete control)) of the same compound?
A: 5%

Q: And the Corn plant response rating (crop injury, 0 = no effect, 100 = complete kill) at 62 g/ha (corn (Zea mays); pre-emergence, Preemergence, scale 0 to 100 (0 no effect, 100 complete control))?
A: 15%
